According to patent publication US11002524B2, “Cyclic compounds and process for the preparation thereof” (Council of Scientific & Industrial Research, priority 2016, dated 2021):
In brackets after ≈: the same amount, converted by molar mass. Read-outs that look alike come from different tables or passages of the source.

Tested on: Salmonella enterica strain AMC (ATCC #6539)
Assay: Antibacterial MIC assay (Promega BacTiter-Glo microbial cell viability assay)
Type: cell-based
Experimental: (§1) The minimum inhibitory concentrations (MICs) are determined using the Promega Bac Titer-Glo microbial cell viability assay, which measures cell viability by quantitation of ATP present, an indicator of metabolic activity of cells. The assays are carried out using Salmonella enterica strain AMC (ATCC #6539), Inocula of S. enterica are prepared from 12-h broth cultures grown in Mueller Hinton broth and the suspensions were then adjusted to a turbidity of 0.5 McFarland. […] Bacterial cells are treated with hunanamycin analogs for 24 hours at ranges from 0.4 to 40 μg/mL and ciprofloxacin as a control ranging from 0.03 to 10 μg/mL. The OD600 is measured using an Envision multi-modal plate reader (Perkin-Elmer, Inc.).
as §1, with “(MICs) were” for “(MICs) are”, “assays were” for “assays are”, “enterica were” for “enterica are”, “cells were” for “cells are”, “OD600 was” for “OD600 is”, “Inc.). The antibiotic assays were performed in Prof. John B. MacMillan's lab, Department of Biochemistry, University of Texas Southwestern Medical Center at Dallas, USA.” for “Inc.).”

[1] = S. enterica AMC ATCC #6539, 24 hours treatment, 0.4 to 40 μg/mL, Mueller Hinton broth, Table 1 in Example 9
[2] = Salmonella enterica, ATCC6539, S. enterica AMC ATCC #6539, 24 hours treatment, 0.4 to 40 μg/mL, Mueller Hinton broth, Table 1 in description, read-out: MIC

| Structure (SMILES) | MIC [1] [µg/mL] | MIC [2] [µg/mL] | MIC (Salmonella enterica, ATCC6539, 24 h) [µg/mL] |
| --- | --- | --- | --- |
| Cc1cc2[nH]c(=O)c(=O)n(C[C@H](O)[C@H](O)[C@H](O)CO)c2cc1C [Compound 2, 6,7-dimethyl-1-((2S,3S,4R)-2,3,4,5-tetrahydroxypentyl)-1,4-dihydroquinoxaline-2,3-dione] | >32 | > 32 |  |
| CC(C)=CCn1c(=O)c(=O)n(C[C@H](O)[C@H](O)[C@H](O)CO)c2cc(C)c(C)cc21 [Compound 3, 6,7-dimethyl-1-(3-methylbut-2-en-1-yl)-4-((2S,3S,4R)-2,3,4,5-tetrahydroxypentyl)-1,4-dihydroquinoxaline-2,3-dione] | 16 (≈ 40.8 µM) | 16 (≈ 40.8 µM) |  |
| C=CCn1c(=O)c(=O)n(C[C@H](O)[C@H](O)[C@H](O)CO)c2cc(C)c(C)cc21 [Compound 4, 1-allyl-6,7-dimethyl-4-((2S,3S,4R)-2,3,4,5-tetrahydroxypentyl)-1,4-dihydroquinoxaline-2,3-dione] | 16 (≈ 43.9 µM) | 16 (≈ 43.9 µM) |  |
| CCn1c(=O)c(=O)n(C[C@H](O)[C@H](O)[C@H](O)CO)c2cc(C)c(C)cc21 [Compound 5, 1-ethyl-6,7-dimethyl-4-((2S,3S,4R)-2,3,4,5-tetrahydroxypentyl)-1,4-dihydroquinoxaline-2,3-dione] | >32 | > 32 |  |
| Cc1cc2c(cc1C)n(C[C@H](O)[C@H](O)[C@H](O)CO)c(=O)c(=O)n2CC=C1CCCCC1 [Compound 6, 1-(2-cyclohexylideneethyl)-6,7-dimethyl-4-((2S,3S,4R)-2,3,4,5-tetrahydroxypentyl)-1,4-dihydroquinoxaline-2,3-dione] | >32 | > 32 |  |
| CCOC(=O)Cn1c(=O)c(=O)n(C[C@H](O)[C@H](O)[C@H](O)CO)c2cc(C)c(C)cc21 [Compound 7, ethyl 2-(6,7-dimethyl-2,3-dioxo-4-((2S,3S,4R)-2,3,4,5-tetrahydroxypentyl)-3,4-dihydroquinoxalin-1(2H)-yl)acetate] | 16 (≈ 39 µM) | 16 (≈ 39 µM) |  |
| Cc1cc2c(cc1C)n(C[C@H](O)[C@H](O)[C@H](O)CO)c(=O)c(=O)n2Cc1ccccc1 [Compound 8, 1-benzyl-6,7-dimethyl-4-((2S,3S,4R)-2,3,4,5-tetrahydroxypentyl)-1,4-dihydroquinoxaline-2,3-dione] | >32 | > 32 |  |
| Cc1cc2c(cc1C)n(C[C@H](O)[C@H](O)[C@H](O)CO)c(=O)c(=O)n2CCC1CCCCC1 [Compound 10, 1-(2-cyclohexylethyl)-6,7-dimethyl-4-((2S,3S,4R)-2,3,4,5-tetrahydroxypentyl)-1,4-dihydroquinoxaline-2,3-dione] | 8 (≈ 18.4 µM) | 8 (≈ 18.4 µM) |  |
| Cc1cc2c3c(c1C)C(C)(C)CCn3c(=O)c(=O)n2C[C@H](O)[C@H](O)[C@H](O)CO [Huanamycin A, 7,7,8,9-tetramethyl-1-((2S,3S,4R)-2,3,4,5-tetrahydroxypentyl)-6,7-dihydro-1H,5H-4l4,41l5-4,41-methanopyrido[3,2,1-ij]quinoxaline-2,3-dione, reference compound] | 8 (≈ 20.4 µM) |  | 8 (≈ 20.4 µM) |
